IC50 and INH data for 21 compounds are collected here from ChEMBL document CHEMBL3351235, “β-amino-alcohol tethered 4-aminoquinoline-isatin conjugates: synthesis and antimalarial evaluation” (Eur J Med Chem, 2014).

The test system of data set [1] is Plasmodium falciparum. As to the kind of experiment: Antimalarial activity against chloroquine-resistant ring stage Plasmodium falciparum W2 assessed as parasitemia after 48 hrs by flow cytometry. The data set is classed as functional, organism-based. As to conditions: W2, 48 h. In general terms: In flow cytometry, cells or beads pass a laser one at a time.
A short description of data set [2]: Cytotoxicity against human HCT116 cells at 0.2 uM after 48 hrs by MTT assay relative to untreated control. As to conditions: hct-116, 48 h.
Data set [3] can be described thus: Cytotoxicity against human HCT116 cells at 2 uM after 48 hrs by MTT assay relative to untreated control. As to conditions: hct-116, 48 h.
Data set [4] in a line: Cytotoxicity against human HCT116 cells at 20 uM after 48 hrs by MTT assay relative to untreated control. As to conditions: hct-116, 48 h. In general terms: Formazan colour is commonly taken as a measure of viable cells.

Broadly, the IC50 is the point on the concentration scale where inhibition reaches its midpoint. Turning to `Cc1ccc2c(c1)C(=O)C(=O)N2CC(CO)NCCCNc1ccnc2cc(Cl)ccc12` (centres undefined), the IC50 in data set [1] amounted to 302 nM.

For the compound `C[C@@H]1CC[C@H]2[C@@H](C)C(=O)O[C@@H]3O[C@@]4(C)CC[C@@H]1[C@]32OO4` [ARTEMISININ], the IC50 in data set [1] stood at 4.37 nM.

As for `Cc1ccc2c(c1)C(=O)C(=O)N2CC(CO)NCCCCNc1ccnc2cc(Cl)ccc12` (centres undefined), in data set [1], the IC50 amounted to 58 nM.

Take `O=C1C(=O)N(CC(CO)N2CCN(c3ccnc4cc(Cl)ccc34)CC2)c2ccccc21` (centres undefined): the IC50 in data set [1] came out at 216 nM.

On to `O=C1C(=O)N(CC(CO)NCCNc2ccnc3cc(Cl)ccc23)c2ccc(Cl)cc21` (centres undefined), for which the INH in data set [2] is listed as 0%; in data set [3] it was -11%; in data set [4], 88%. Further, the IC50 in data set [1] amounted to 11.7 nM.

As to `O=C1C(=O)N(CC(CO)NCCNc2ccnc3cc(Cl)ccc23)c2ccccc21` (centres undefined), the values for the INH in data set [2], in data set [3] and in data set [4] were 0%, 2% and 91%, respectively. Further, in data set [1], the IC50 worked out at 24.9 nM.

As to `O=C1C(=O)N(CC(CO)NCCCCNc2ccnc3cc(Cl)ccc23)c2ccc(F)cc21` (centres undefined), the INH in data set [2] is -1%; in data set [3] it was 0%; in data set [4], 83%. In data set [1], the IC50 was 45.3 nM.

As for `O=C1C(=O)N(CC(CO)NCCCNc2ccnc3cc(Cl)ccc23)c2ccc(F)cc21` (centres undefined), the values for the INH in data set [2], in data set [3] and in data set [4] were -2%, 12% and 66%, respectively. In addition, the IC50 in data set [1] stood at 72.3 nM.

Turning to `O=C1C(=O)N(CC(CO)NCCCCNc2ccnc3cc(Cl)ccc23)c2ccccc21` (centres undefined), the INH in data set [2] is given as 0%; in data set [3] it was -5%; in data set [4], 37%. Further, the IC50 in data set [1] is 48.7 nM.

`Cc1ccc2c(c1)C(=O)C(=O)N2CC(CO)NCCCCCCNc1ccnc2cc(Cl)ccc12` (centres undefined): the IC50 in data set [1] was 55.8 nM.

With `O=C1C(=O)N(CC(CO)NCCCCNc2ccnc3cc(Cl)ccc23)c2ccc(Cl)cc21` (centres undefined), in data set [1], the IC50 stood at 101 nM.

Consider `O=C1C(=O)N(CC(CO)NCCCNc2ccnc3cc(Cl)ccc23)c2ccccc21` (centres undefined), for which the INH is 2% in data set [2], -12% in data set [3] and 85% in data set [4]. The IC50 in data set [1] amounted to 75.5 nM.

Consider `O=C1C(=O)N(CC(CO)NCCCCCCNc2ccnc3cc(Cl)ccc23)c2ccc(Cl)cc21` (centres undefined), for which the IC50 in data set [1] was determined as 49.7 nM.

`O=C1C(=O)N(CC(CO)N2CCN(c3ccnc4cc(Cl)ccc34)CC2)c2ccc(F)cc21` (centres undefined): the IC50 in data set [1] was 1850 nM.

Consider `O=C1C(=O)N(CC(CO)N2CCN(c3ccnc4cc(Cl)ccc34)CC2)c2ccc(Cl)cc21` (centres undefined), for which, in data set [1], the IC50 worked out at 1960 nM.

With `O=C1C(=O)N(CC(CO)NCCCCCCNc2ccnc3cc(Cl)ccc23)c2ccc(F)cc21` (centres undefined), the IC50 in data set [1] was determined as 59.6 nM.

Take `COc1cccc2c1C(=O)c1c(O)c3c(c(O)c1C2=O)C[C@@](O)(C(=O)CO)C[C@@H]3O[C@H]1C[C@H](N)[C@H](O)[C@H](C)O1` [DOXORUBICIN]: the values for the INH in data set [2], in data set [3] and in data set [4] were 84%, 79% and 79%, respectively.

On to `Cc1ccc2c(c1)C(=O)C(=O)N2CC(CO)N1CCN(c2ccnc3cc(Cl)ccc23)CC1` (centres undefined), for which, in data set [1], the IC50 stood at 1220 nM.

As to `O=C1C(=O)N(CC(CO)NCCCCCCNc2ccnc3cc(Cl)ccc23)c2ccccc21` (centres undefined), the IC50 in data set [1] was determined as 62.9 nM.

Consider `O=C1C(=O)N(CC(CO)NCCNc2ccnc3cc(Cl)ccc23)c2ccc(F)cc21` (centres undefined), for which, in data set [1], the IC50 turned out to be 488 nM.

On to `O=C1C(=O)N(CC(CO)NCCCNc2ccnc3cc(Cl)ccc23)c2ccc(Cl)cc21` (centres undefined), for which the values for the INH in data set [2], in data set [3] and in data set [4] were 0%, 2% and 46%, respectively. For the same compound, the IC50 in data set [1] came out at 13.5 nM.
